{
  "source": "patent US6379670B1",
  "about": "“Methods for treatment of multiple sclerosis using peptide analogs of human myelin basic protein” (Neurocrine Biosciences, Inc., priority 1994, dated 2002)",
  "key": {"[1]": {"system": "Dr2a restricted human T cell clone reactive to MBP", "test": "Human T cell proliferation, Dr2a restricted clone", "assay_type": "cell-based", "procedure": "Human T cells reactive to MBP (83-99) may alternatively be used to measure the ability of the peptide analog to inhibit proliferation of T cells induced by native MBP (83-99) peptide. MBP-specific T cells may be obtained as previously described by Martin et al., J. Immunol. 148:1359-1366, 1992. Briefly, T cell lines are established by culture of human T cells with irradiated, DR-matched peripheral blood cells in MEM supplemented with 2 mM L-glutamine, 50 μg/ml gentamicin, penicillin and streptomycin, 100 U/ml rIL-2, and 10% human AB negative serum. Proliferation of these T cell lines is stimulated by culturing a clone with varying concentration (1.1-30 μM) of native […] peptide, 50 μM of the peptide analog or SWM peptide, in the presence of irradiated, DR matched peripheral blood cells, following incubation for approximately 60 hours, the cells are pulsed with ^3H-thymidine for 12 hours and harvested. The amount of incorporated ^3H-thymidine is measured.\nThe ability of the peptide analogs NBI-5719, 5748, 5765, 5788 and 5789 (SEQ ID NOs: 4-8 respectively) to affect human T cell proliferation was assessed. […] The amount of tritiated thymidine incorporated was measured, and the data represented as the mean plus or minus the standard error of the mean of replicate samples.\nThe potency of NBI-5788 (SEQ ID NO:7) was then determined by varying concentrations of the APL. […]"}, "[2]": {"system": "Dr2b-restricted T cell clone 5F6", "test": "Cytokine production (TNF-α, IFN-γ) by T cell clone 5F6, EIA", "assay_type": "cell-based, human", "procedure": "As discussed in detail below, the production of cytokines may also be assessed. In particular, TNF-α and IFN-γ production are especially interesting. These pro-inflammatory cytokines are thought to play a role in the pathogenesis of the disease. Briefly, T cell clone is incubated in the presence of stimulating MBP peptide and peptide analog or control peptide (SWM) or medium only. After a 24 hour incubation, the levels of TNF-α and IFN-γ in the supernatant are determined using commercially available EIA kits (Endogen, Cambridge, Mass.).\nThe ability of the peptide analog ligand to influence cytokine production was next measured. The Dr2b-restricted T cell clone 5F6 was incubated in the presence of 3 μM MBP peptide with either 10 μM of NBI-5788 (SEQ ID NO:7) or SWM or medium only. As a control, cells were cultured in the presence of medium alone. After 24 hours, supernatants were removed and the levels of tumor necrosis factor alpha (TNF-α) and interferon-y (IFN-γ) determined using commercially available EIA kits."}, "[3]": {"system": "peripheral blood mononuclear cells", "test": "Frequency of antigen-reactive T cells in PBMC of untreated MS patients and healthy donors (split-well)", "assay_type": "cell-based, human", "parameters": "mean frequency of antigen-reactive T cells / frequency of antigen-reactive T cells in healthy subjects / antigen-reactive T cells, % Positive: concentration or dose not given beside the values", "procedure": "Immune response to the peptide analog was assessed by measuring the frequency of proliferating peripheral blood T cells using a split-well microtiter method (i.e., number of positive wells {Δ cpm >1000, stimulation index>3} divided by the total number of wells assayed). Peripheral blood mononuclear cells (PBMC) were isolated from venous blood by Ficoll-Hypaque density gradient centrifugation, washed twice and resuspended in complete tissue culture medium (Iscove's modification of Dulbecco's medium containing 10% heat-inactivated, pooled, human A-B serum, 2 mM L-glutamine, 100 U/ml penicillin/streptomycin and 50 μg/ml gentamycin). PBMC from each patient were seeded at 10^5/well in 96 well, U-bottom microtiter plates containing 25 μg/ml whole MBP, 10 μg/ml NBI-5788 or medium alone in a volume of 200 μl. Three days later supernatants were collected and frozen at −80° C. and fresh medium containing IL-2 (10 U/ml) was added. IL-2-containg medium was refreshed on Day 7 and Day 11. On Day 14, the frequency of antigen response was determined by the “split well” technique. Briefly, cells from one primary well were split into replicate experimental wells in the presence of 10^5 freshly isolated autologous, irradiated peripheral blood mononuclear cells (APCs): one containing the original antigen (25 μg/ml) and one without antigen. Two days later supernatants were collected and the wells pulsed with 1 µCi/well [^3H]-thymidine ([…]) for the final 18 hours of culture. ^3H-Thymidine uptake was measured in a beta counter. […] The association between T cell frequency and NBI-5788 treatment was evaluated by χ^2 contingency analysis."}, "[4]": {"settings": "subject MS-2, untreated MS patient"}, "[5]": {"settings": "subject MS-3, untreated MS patient"}, "[6]": {"settings": "subject MS-7, untreated MS patient"}, "[7]": {"settings": "subject MS-8, untreated MS patient"}, "[8]": {"settings": "subject MS-9, untreated MS patient"}, "[9]": {"settings": "subject MS-10, untreated MS patient"}, "[10]": {"settings": "subject MS-11, untreated MS patient"}},
  "note": "Non-standard residues stand in square brackets, D forms with d. No end group written: not given here.",
  "data": [
    {"substance": "MBP(83-99) (83E>a, 84N>K, 89F>L, and 91K>A) ([dA]KPVVHLFANIVTPRTP) [NBI-5788]", "values": [
      {"measurement": "inhibition of proliferative response of Dr2a restricted T cell clone to MBP(83-99)", "setting": "[1]; 50 μM peptide, MBP(83-99) 1.1-30 μM, FIGS. 13 and 14", "value": "inhibited the ability of a human Dr2a restricted T cell clone to respond"},
      {"measurement": "inhibition of response of Dr2a T cell line to MBP(83-99), potency", "setting": "[1]; APL 2, 10 or 50 μM, effect at both 10 and 50 μM, SWM 50 μM, FIG. 15", "value": "significantly altered the ability of the Dr2a T cell line to respond to MBP(83-99)"},
      {"measurement": "effect on MBP-stimulated production of TNF-α and IFN-γ", "setting": "[2]; 10 μM peptide with 3 μM MBP peptide, to approximately levels with medium only", "value": "dramatically inhibited the production of both pro-inflammatory cytokines"},
      {"measurement": "stimulation of cytokine production over background by the analog itself", "setting": "[2]; even at concentrations of 50 μM (data not shown)", "value": "None"},
      {"measurement": "antigen-reactive T cells, Positive/total wells", "setting": "[3]; Total of healthy donors", "value": "0/96"},
      {"measurement": "antigen-reactive T cells, Positive/total wells", "setting": "[3]; Total of untreated MS patients", "value": "19/308"},
      {"measurement": "antigen-reactive T cells, % Positive", "setting": "[3]; healthy donor HD-1", "value": 0, "unit": "%"},
      {"measurement": "antigen-reactive T cells, Positive/total wells", "setting": "[3]; healthy donor HD-1", "value": "0/48"},
      {"measurement": "antigen-reactive T cells, % Positive", "setting": "[3]; healthy donor HD-2", "value": 0, "unit": "%"},
      {"measurement": "antigen-reactive T cells, Positive/total wells", "setting": "[3]; healthy donor HD-2", "value": "0/48"},
      {"measurement": "antigen-reactive T cells, % Positive", "setting": "[3]; [4]", "value": 6.8, "unit": "%"},
      {"measurement": "antigen-reactive T cells, Positive/total wells", "setting": "[3]; [4]", "value": "3/44"},
      {"measurement": "antigen-reactive T cells, % Positive", "setting": "[3]; [5]", "value": 2.3, "unit": "%"},
      {"measurement": "antigen-reactive T cells, Positive/total wells", "setting": "[3]; [5]", "value": "1/44"},
      {"measurement": "antigen-reactive T cells, % Positive", "setting": "[3]; [6]", "value": 6.8, "unit": "%"},
      {"measurement": "antigen-reactive T cells, Positive/total wells", "setting": "[3]; [6]", "value": "3/44"},
      {"measurement": "antigen-reactive T cells, % Positive", "setting": "[3]; [7]", "value": 11.4, "unit": "%"},
      {"measurement": "antigen-reactive T cells, Positive/total wells", "setting": "[3]; [7]", "value": "5/44"},
      {"measurement": "antigen-reactive T cells, % Positive", "setting": "[3]; [8]", "value": 9.1, "unit": "%"},
      {"measurement": "antigen-reactive T cells, Positive/total wells", "setting": "[3]; [8]", "value": "4/44"},
      {"measurement": "antigen-reactive T cells, % Positive", "setting": "[3]; [9]", "value": 4.5, "unit": "%"},
      {"measurement": "antigen-reactive T cells, Positive/total wells", "setting": "[3]; [9]", "value": "2/44"},
      {"measurement": "antigen-reactive T cells, % Positive", "setting": "[3]; [10]", "value": 2.3, "unit": "%"},
      {"measurement": "antigen-reactive T cells, Positive/total wells", "setting": "[3]; [10]", "value": "1/44"},
      {"measurement": "frequency of antigen-reactive T cells in healthy subjects", "setting": "[3]; two healthy subjects, MBP-reactive cells detected in one of two", "value": "no NBI-5788-reactive T cells were detected"},
      {"measurement": "mean frequency of antigen-reactive T cells", "setting": "[3]; untreated MS patients (n=7)", "value": "6.2±1.3", "unit": "%"}
    ]}
  ]
}
